One may read the EC50 as the concentration that produces a half-maximal response. A word on the IC50: it is the concentration needed to halve the response being measured. High values mean weaker potency, low ones greater potency.

For 35 compounds, Efficacy, EC50 and IC50 results are on record in ChEMBL document CHEMBL3352461, “Discovery and optimization of 5-fluoro-4,6-dialkoxypyrimidine GPR119 agonists” (Bioorg Med Chem Lett, 2014).

For test [1], the target named is T1, Glucose-dependent insulinotropic receptor (Rattus norvegicus) (UniProt Q7TQN8).
T1 sequence (whole entry): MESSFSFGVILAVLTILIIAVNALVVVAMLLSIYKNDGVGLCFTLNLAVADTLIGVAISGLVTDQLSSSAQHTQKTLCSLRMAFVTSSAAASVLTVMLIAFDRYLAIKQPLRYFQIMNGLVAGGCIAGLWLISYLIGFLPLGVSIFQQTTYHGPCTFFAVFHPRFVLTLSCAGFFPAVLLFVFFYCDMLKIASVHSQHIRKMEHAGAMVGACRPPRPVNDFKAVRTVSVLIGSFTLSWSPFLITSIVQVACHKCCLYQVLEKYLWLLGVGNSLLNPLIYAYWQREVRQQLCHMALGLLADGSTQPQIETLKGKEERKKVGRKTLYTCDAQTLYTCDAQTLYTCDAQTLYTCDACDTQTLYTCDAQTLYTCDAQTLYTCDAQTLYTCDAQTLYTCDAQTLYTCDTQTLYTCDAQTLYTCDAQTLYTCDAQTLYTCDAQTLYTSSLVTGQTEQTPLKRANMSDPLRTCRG
Put plainly: […] of rat GPR119 activity by homogeneous time resolved fluorescence cyclase (cAMP) assay relative to AR231453. The format is functional.

Test [2] addresses T2, Glucose-dependent insulinotropic receptor (Homo sapiens, UniProt Q8TDV5).
T2 sequence (Q8TDV5 whole entry): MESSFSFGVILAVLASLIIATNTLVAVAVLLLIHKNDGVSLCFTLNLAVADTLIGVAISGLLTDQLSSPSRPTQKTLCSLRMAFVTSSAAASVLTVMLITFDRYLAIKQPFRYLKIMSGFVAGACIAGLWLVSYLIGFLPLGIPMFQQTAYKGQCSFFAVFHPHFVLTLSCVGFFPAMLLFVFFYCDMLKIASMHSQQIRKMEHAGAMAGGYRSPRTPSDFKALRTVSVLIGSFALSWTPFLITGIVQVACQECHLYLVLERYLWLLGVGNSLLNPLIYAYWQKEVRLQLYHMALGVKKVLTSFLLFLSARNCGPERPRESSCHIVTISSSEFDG
The test is described as follows: […] of human GPR119 activity by homogeneous time resolved fluorescence cyclase (cAMP) assay. The format is functional.

For test [3], the target named is T3, Glucose-dependent insulinotropic receptor (Rattus norvegicus, UniProt Q7TQN8).
T3 sequence (Q7TQN8 whole entry): T1 sequence (whole entry)
The test is described as follows: […] of rat GPR119 activity by homogeneous time resolved fluorescence cyclase (cAMP) assay. The format is functional.

Test [4] concerns the target T4, Glucose-dependent insulinotropic receptor (Homo sapiens) (UniProt Q8TDV5).
T4 sequence (whole entry): T2 sequence (Q8TDV5 whole entry)
Put plainly: […] of human GPR119 activity by homogeneous time resolved fluorescence cyclase (cAMP) assay relative to AR231453. The format is functional.

A further test addresses Cytochrome P450 2C9 (Homo sapiens, UniProt P11712). The test is described as follows: Inhibition of CYP2C9 (unknown origin). The format is ADME.

Chain of Cytochrome P450 2C9 (P11712 whole entry): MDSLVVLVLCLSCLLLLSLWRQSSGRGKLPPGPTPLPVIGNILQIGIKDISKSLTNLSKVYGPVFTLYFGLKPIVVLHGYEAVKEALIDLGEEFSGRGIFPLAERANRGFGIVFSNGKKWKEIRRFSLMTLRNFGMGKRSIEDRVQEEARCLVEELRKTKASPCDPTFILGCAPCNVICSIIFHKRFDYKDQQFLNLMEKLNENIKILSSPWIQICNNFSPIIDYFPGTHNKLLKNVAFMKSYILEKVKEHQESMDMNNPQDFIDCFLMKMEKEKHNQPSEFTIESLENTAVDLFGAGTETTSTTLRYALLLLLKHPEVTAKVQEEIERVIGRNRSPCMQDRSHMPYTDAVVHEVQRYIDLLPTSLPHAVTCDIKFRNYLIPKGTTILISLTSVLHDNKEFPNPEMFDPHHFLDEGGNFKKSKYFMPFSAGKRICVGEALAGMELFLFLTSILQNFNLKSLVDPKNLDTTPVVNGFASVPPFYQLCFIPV

Take `Cc1nc(S(C)(=O)=O)ccc1Oc1ncnc(OC2CCN(C(=O)OC(C)(C)C)CC2)c1F`: the values for the Efficacy in test [1] and in test [4] were 97% and 81%, respectively. The EC50 came to 7.91 nM in test [2] and 49.6 nM in test [3].
With `Cc1nc(S(C)(=O)=O)ccc1Oc1ncnc(OC2CCN(C(=S)OC3(C)CC3)CC2)c1F`, the Efficacy in test [1] worked out at 49%. Moreover, the EC50 in test [3] is 48.8 nM.
`Cc1nc(S(C)(=O)=O)ccc1Oc1ncnc(OC2CCN(C(=O)C3CCCC3)CC2)c1F`: the results for the Efficacy in test [1] and in test [4] were 83% and 87%, respectively. Moreover, the EC50 came out at 72.8 nM in test [2] and 407 nM in test [3].
The corresponding values for `Cc1nc(S(C)(=O)=O)ccc1Oc1ncnc(OC2CCN(C(=O)O[C@H](C)C(F)(F)F)CC2)c1F` are 85%, 56%, 9.2 nM and 110 nM.
The corresponding values for `CCc1cnc(C(=O)N2CCC(Oc3ncnc(Oc4ccc(S(C)(=O)=O)nc4C)c3F)CC2)nc1` are 80%, 99%, 4.7 nM and 40.8 nM.
On the same counts, the results for `Cc1nc(S(C)(=O)=O)ccc1Oc1ncnc(OC2CCN(C(=O)c3ncc(Cl)cn3)CC2)c1F` are 77%, 83%, 6.12 nM and 30.9 nM.
As to `Cc1nc(S(C)(=O)=O)ccc1Oc1ncnc(OC2CCN(C(=O)C3(F)CCC3)CC2)c1F`, the results for the Efficacy in test [1] and in test [4] were 91% and 99%, respectively. The EC50 in test [2] came to 24.7 nM; in test [3], 123 nM.
For `Cc1nc(S(C)(=O)=O)ccc1Oc1ncnc(OC2CCN(C(=O)OC(C)C)CC2)c1F`, the IC50 on Cytochrome P450 2C9 is > 50 µM. The figures for the Efficacy in test [1] and in test [4] were 77% and 75%, respectively. Moreover, the concentration for a half-maximal effect (EC50) in test [2] came to 21 nM; in test [3] it was 142 nM.
As to `Cc1nc(S(C)(=O)=O)ccc1Oc1ncnc(OC2CCN(C(=O)C3(C)CC3)CC2)c1F`, the EC50 in test [2] was 761 nM. Besides, the Efficacy in test [4] was found to be 72%.
`Cc1nc(S(C)(=O)=O)ccc1Oc1ncnc(OC2CCN(C(=O)OC3CCC3)CC2)c1F`: the Efficacy was found to be 81% in test [1] and 65% in test [4]. The figures for the EC50 in test [2] and in test [3] were 13.6 nM and 167 nM, respectively.
As to `Cc1nc(S(C)(=O)=O)ccc1Oc1ncnc(OC2CCN(C(=O)C(C)(F)F)CC2)c1F`, the figures for the Efficacy in test [1] and in test [4] were 87% and 76%, respectively. For the same compound, the EC50 in test [2] came out at 37 nM; in test [3] it was 239 nM.
On the same counts, the results for `Cc1nc(S(C)(=O)=O)ccc1Oc1ncnc(OC2CCN(C(=O)OC(C)(C)C#N)CC2)c1F` are 97%, 90%, 92.9 nM and 1320 nM.
The corresponding values for `CCC1(OC(=O)N2CCC(Oc3ncnc(Oc4ccc(S(C)(=O)=O)nc4C)c3F)CC2)CC1` are 83%, 65%, 22 nM and 333 nM.
For `Cc1nc(S(C)(=O)=O)ccc1Oc1ncnc(OC2CCN(C(=O)c3nc(C(C)(C)F)no3)CC2)c1F`, the Efficacy was 84% in test [1] and 74% in test [4]. Also, the EC50 in test [2] is 43.4 nM; in test [3], 606 nM.
As for `Cc1nc(S(C)(=O)=O)ccc1Oc1ncnc(OC2CCN(C(=O)SC3(C)CC3)CC2)c1F`, the Efficacy in test [1] came to 77%; in test [4], 93%. For the same compound, the EC50 was 13.2 nM in test [2] and 166 nM in test [3].
In the case of `Cc1nc(S(C)(=O)=O)ccc1Oc1ncnc(OC2CCN(C(=O)OC3(C(F)(F)F)COC3)CC2)c1F`, the Efficacy amounted to 84% in test [1] and 66% in test [4]. For the same compound, the EC50 in test [2] worked out at 29.3 nM; in test [3], 342 nM.
The corresponding values for `Cc1nc(S(C)(=O)=O)ccc1Oc1ncnc(OC2CCN(C(=O)O[C@@H](C)C(F)(F)F)CC2)c1F` are 80%, 78%, 9.86 nM and 109 nM.
The corresponding values for `Cc1nc(S(C)(=O)=O)ccc1Oc1ncnc(OC2CCN(C(=S)OC(C)C)CC2)c1F` are 47%, -32%, 69.9 nM and 1050 nM.
On to `Cc1nc(S(C)(=O)=O)ccc1Oc1ncnc(OC2CCN(C(=O)O[C@H](C)CF)CC2)c1F`, for which the results for the Efficacy in test [1] and in test [4] were 79% and 59%, respectively. Also, the EC50 in test [2] turned out to be 196 nM; in test [3], 1520 nM.
The corresponding values for `Cc1nc(S(C)(=O)=O)ccc1Oc1ncnc(OC2CCN(C(=O)C(F)(F)F)CC2)c1F` are 76%, 52%, 151 nM and 880 nM.
The corresponding values for `Cc1nc(S(C)(=O)=O)ccc1Oc1ncnc(OC2CCN(C(=O)OC(C)(C)C(F)(F)F)CC2)c1F` are 79%, 36%, 6.53 nM and 47.2 nM.
On the same counts, the results for `Cc1nc(S(C)(=O)=O)ccc1Oc1ncnc(OC2CCN(C(=O)OC3(C(F)(F)F)CCC3)CC2)c1F` are 82%, 38%, 14.3 nM and 63.3 nM.
For `COc1c(Nc2ccc(S(C)(=O)=O)nc2C)ncnc1OC1CCN(C(=O)OC(C)C)CC1` [ADP-597], the IC50 at Cytochrome P450 2C9 turned out to be 5.8 µM. Besides, the results for the Efficacy in test [1] and in test [4] were 89% and 75%, respectively.
On to `Cc1nc(S(C)(=O)=O)ccc1Oc1ncnc(OC2CCN(C(=O)SC(C)(C)C)CC2)c1F`, for which the Efficacy in test [1] turned out to be 76%; in test [4], 87%. For the same compound, the figures for the EC50 in test [2] and in test [3] were 4.83 nM and 30.7 nM, respectively.
On the same counts, the results for `Cc1nc(S(C)(=O)=O)ccc1Oc1ncnc(OC2CCN(C(=O)SC(C)C)CC2)c1F` are 81%, 95%, 6.8 nM and 41.3 nM.
For the compound `Cc1nc(S(C)(=O)=O)ccc1Oc1ncnc(OC2CCN(C(=O)SC3CC3)CC2)c1F`, the Efficacy in test [1] was 80%; in test [4] it was 103%. In addition, the concentration for a half-maximal effect (EC50) was determined as 24.9 nM in test [2] and 126 nM in test [3].
The corresponding values for `Cc1nc(S(C)(=O)=O)ccc1Oc1ncnc(OC2CCN(C(=O)c3noc(C(C)(C)F)n3)CC2)c1F` are 74%, 69%, 14 nM and 103 nM.
On the same counts, the results for `Cc1nc(S(C)(=O)=O)ccc1Oc1ncnc(OC2CCN(C(=O)SC3CCC3)CC2)c1F` are 81%, 94%, 8.51 nM and 77.4 nM.
Turning to `Cc1nc(S(C)(=O)=O)ccc1Oc1ncnc(OC2CCN(C(=O)OC(C)(C)CF)CC2)c1F`, the Efficacy is 95% in test [1] and 74% in test [4]. Also, the EC50 in test [2] was 19.9 nM; in test [3], 138 nM.
The corresponding values for `Cc1nc(S(C)(=O)=O)ccc1Oc1ncnc(OC2CCN(C(=O)C(C)(C)F)CC2)c1F` are 74%, 66%, 76.3 nM and 296 nM.
For the compound `Cc1nc(S(C)(=O)=O)ccc1Nc1ncnc(OC2CCN(C(=O)OC(C)C)CC2)c1F`, it took 5.5 µM to reach half-maximal inhibition against Cytochrome P450 2C9 (IC50). Besides, the Efficacy was 85% in test [1] and 77% in test [4]. Besides, the EC50 in test [2] was determined as 132 nM; in test [3] it was 265 nM.
Take `CCC(F)(F)C(=O)N1CCC(Oc2ncnc(Oc3ccc(S(C)(=O)=O)nc3C)c2F)CC1`: the Efficacy in test [1] is 90%; in test [4], 85%. The EC50 in test [2] stood at 17.4 nM; in test [3] it was 69.2 nM.
On the same counts, the results for `Cc1nc(S(C)(=O)=O)ccc1Oc1ncnc(OC2CCN(C(=O)c3noc(C(C)C)n3)CC2)c1F` are 81%, 72%, 21.2 nM and 176 nM.
On the same counts, the results for `Cc1nc(S(C)(=O)=O)ccc1Oc1ncnc(OC2CCN(C(=O)O[C@@H](C)CF)CC2)c1F` are 84%, 72%, 186 nM and 1680 nM.
The corresponding values for `Cc1nc(S(C)(=O)=O)ccc1Oc1ncnc(OC2CCN(C(=O)OC3COC3)CC2)c1F` are 66%, 58%, 326 nM and 2500 nM.
